For series [1], the system named is BDNF, NGF, NT-3, and GAP-43 mRNA. Put plainly: NTF mRNA expression in primary hippocampal neurons treated with Aβ (real time PCR). Type of series: cell-based, rat. The conditions noted are these: co-treated 24 hours or treated 12 hours after Aβ. As for the experimental part:
Protocol: Primary hippocampal neurons were treated with control buffer (Untreated), Aβ (1 μM, oligomeric form), or 0.5 nM bryostatin for 24 hours. Some cells were co-treated with Aβ plus 0.5 nM bryostatin (Bryo+Aβ) for 24 hours, or pre-treated with Aβ for 12 hours, washed out, and then treated with bryostatin for additional 12 hours (Aβ+Bryo). Cells were then lysed and total RNA was isolated. Relative expression change of BDNF, NGF, NT-3, and GAP-43 mRNA was quantitatively measured from real time PCR using specific primers against rat BDNF, NGF, NT-3, and GAP-43 mRNA (FIG. 14). A representative gel image is also shown below in FIG. 14 (Mean+SEM, *P<0.05, Aβ compared with untreated; #P<0.05, Bryo+Aβ or Aβ+Bryo compared with Aβ only).
Test A—DCPLA (500 nM): Primary hippocampal neurons were treated with control buffer (Untreated), Aβ (1 μM, oligomer), or 500 nM DCPLA for 24 hours. Some cells were pre-treated with Aβ for 12 hr and then treated with 500 nM DCPLA for 12 hours (Aβ+DCP-LA), or co-treated with Aβ plus 500 nM DCP-LA (DCP-LA+Aβ) for 24 hours. Total RNA was isolated and relative expression change of BDNF, NGF, NT-3, and GAP-43 mRNA was quantitatively measured from real time RT-PCR using specific primers against rat BDNF, NGF, NT-3, and GAP-43 mRNA (FIG. 15). A representative gel image is also shown below in FIG. 15 (Mean+SEM of three independent experiments, *P<0.05, Aβ compared with untreated; #P<0.05, Aβ+Bryo or Bryo+Aβ compared with Aβ only).
Test B—DCPLA-methyl ester (100 nM): Primary hippocampal neurons were treated with control buffer (Untreated), 1 μM Aβ, or 100 nM DCP-LA ME (the methyl ester form of DCP-LA) for 24 hours. Some cells were pre-treated with Aβ for 12 hr and then treated with 100 nM DCP-LA ME for 12 hours (Aβ+DCP-LA ME), or co-treated with Aβ plus […] (DCP-LA ME+Aβ) for 24 hours. Total RNA was isolated and relative expression change of BDNF, NGF, NT-3, and GAP-43 mRNA was quantitatively measured from real time RT-PCR using specific primers against rat BDNF, NGF, NT-3, and GAP-43 mRNA (FIG. 16). […]
Background: In qPCR the cycle at which signal appears reflects the starting amount.

For another series, the system named is ECE. Briefly: ECE activity in SH-SY5Y cells (fluorometric). It counts as cell-based. The conditions noted are these: compared to ethanol alone. Here is the method: Aβ can be degraded in vivo by a number of enzymes, including insulin degrading enzyme (insulysin), neprilysin, and ECE (FIG. 12). Because PKC-ε overexpression has been reported to activate ECE (Choi et al., Proc. Natl. Acad. Sci. USA. 2006; 103: 8215-20), the effect of PKC activators on ECE was analyzed. Candidate PKC activators were added to either SH-SY5Y cells (Bryo—0.27 nM, DCP-LA—1 μM, and DHA-CP6 1 μM) or cultured neurons (DHA-CP6—1 μM, EPA-CP5— 1 μM, and AA-CP4— 1 μM), and grown on either 12- or 24-well plates. After various time periods, the cells were collected and ECE activity was measured fluorometrically. Results are shown below in FIG. 13. *, p<0.05; **, p<0.001.
PKCε overexpression has been reported to activate endothelin converting enzyme (ECE). The effect of PKC activators on ECE was measured here with Bryostatin, DCP-LA, and DHA-CP6. […] Protocol: Bryostatin (0.27 nM), DCP-LA (1 μM), DHACP6 (1 μM), EPA-CP5 (1 μM), AA-CP4 (1 μM), or ethanol alone were added to SH-SYSY cells growing on 12- or 24-well plates. After various periods of time, the cells were collected and ECE activity was measured fluorometrically as showing in FIG. 34 below (* p<0.05, ** p<0.001).

A further series has as its system 5XFAD mice. Put plainly: Water maze learning and memory and amyloid deposition in 5XFAD mice. It counts as in vivo. The conditions noted are these: 2 times/week from 2 months old. The source says: Protocol: 5-month old 5XFAD mice were trained for 5-6 days (3-4 trials/day) to find a hidden platform (9 cm diameter), submerged about 2 cm below the water surface in the a maze pool with 114 cm diameter. After the training trials, a probe trial (a quadrant test or memory retention trial) was given with the platform removed to assess memory retention for its location by the distance the mouse moved in the quadrants. […] Non-treated groups (wild-type and transgenic (5×) mice) received the same vehicle volumes, mechanism of delivery, and frequency of administration as the treated groups

Series [2] relates to TA 100 cells & TA 1535 cells / TA 98 cells. Briefly: AMES testing, overall result (mutagenic potential). It counts as cell-based. The source says: The AMES test is a rapid screening of the mutagenic potential of chemical compounds. […] Between 50% and 70% of all known carcinogens test positive in the AMES test.

Read-outs that look alike come from different tables or passages of the source.

On to `CCC/C=C/C=C/C(=O)O[C@H]1/C(=C/C(=O)OC)C[C@H]2C[C@H]([C@@H](C)O)OC(=O)C[C@H](O)C[C@@H]3C[C@H](OC(C)=O)C(C)(C)[C@](O)(C[C@@H]4C/C(=C/C(=O)OC)C[C@H](/C=C/C(C)(C)[C@]1(O)O2)O4)O3` [Bryostatin, bryostatin-1], for which the “NTF mRNA expression decreased by Aβ” value in series [1] (0.5 nM, Aβ 1 μM oligomeric) is listed as “recovers NTF mRNA expression decreased by Aβ”. For the same compound, the ECE activity entry is reported as “sustained increase in ECE activity” in the series on ECE (0.27 nM) and “increase in ECE activity” in the series on ECE (0.27 nM, listed as Bryo). Besides, the amyloid deposition result in the series with 5XFAD mice (30 μg/kg intraperitoneal) is on record as “reduced amyloid deposition”. For the same compound, in the series on 5XFAD mice (30 μg/kg intraperitoneal), the “learning and memory deficits (water maze)” value is “prevented learning (A, C) and memory deficits (B, D)”. In series [2] (summary of Tables 1-4), the AMES testing result is on record as “not mutagenic”.
Turning to `CCCCCC1CC1CC1CC1CCCCCCCC(=O)O` (stereo not drawn) [DCPLA, 8-[2-(2-pentylcyclopropyl)methyl]-cyclopropaneoctanoic acid], in series [1] (500 nM, Aβ 1 μM oligomer), the “NTF mRNA expression decreased by Aβ” value is on record as “recovers NTF mRNA expression decreased by Aβ”. In addition, the ECE activity result with ECE (1 μM) is “sustained increase in ECE activity”. For the same compound, in the series with 5XFAD mice (20 mg/m2 tail vein), the amyloid deposition entry is given as “reduced amyloid deposition”; the “learning and memory deficits (water maze)” value is “prevented learning (A, C) and memory deficits (B, D)”. Moreover, in series [2], the AMES testing result is recorded as “not mutagenic” and the “Result (Mutagenic Potential)” value is reported as “Result: Not mutagenic, p > 0.05”.

Source of the values: patent US20160025704A1, “METHODS FOR IDENTIFYING NEUROPROTECTIVE PKC ACTIVATORS” (priority 2013, published 2016).
